# Test results from ChEMBL document CHEMBL1201862, “PubChem BioAssay data set” (2004).
# Activity calls are given as the source filed them.
# Assays:
# Fatty acid synthase [1] = target: T1, Fatty acid synthase (Homo sapiens, UniProt P49327); assay: FAS thioesterase domain inhibitors, dose response, biochemical, kinetic fluorescence intensity (AID 624326); format: functional;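 further: rate of fluorescence rise from hydrolysis of a fluorogenic O-methyl fluorescein ester substrate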
# Fatty acid synthase [2] = target: T1, Fatty acid synthase; assay: FAS thioesterase domain inhibitors, dose response, biochemical, endpoint fluorescence intensity, uHTS hits (AID 624327); format: functional;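 further: fluorescence from hydrolysis of an O-methyl fluorescein acyl ester substrate by the enzyme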
# BJ [3] = assay: cytotoxicity toward BJ-TERT-LT-ST fibroblasts, dose response, cell-based, RAS-independent, luminescence (AID 1935); format: functional; settings: Homo sapiens;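 further: BJ fibroblasts immortalized with TERT plus LT and ST oncogenes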
# BJ [4] = assay: cytotoxicity toward BJ-TERT fibroblasts, dose response, cell-based, RAS-independent, luminescence (AID 1933); format: functional; settings: Homo sapiens
# [5] = cytotoxicity toward DRD oncogenic fibroblasts, dose response, cell-based, non-viral oncogenic, luminescence (AID 1934); format: functional; settings: Homo sapiens
# BJ [6] = assay: cells; format: functional, cell-based; settings: Homo sapiens
# [7] = target: T2, Apoptotic protease-activating factor 1 (Homo sapiens, UniProt O14727); format: functional
# T2 sequence (O14727 whole entry): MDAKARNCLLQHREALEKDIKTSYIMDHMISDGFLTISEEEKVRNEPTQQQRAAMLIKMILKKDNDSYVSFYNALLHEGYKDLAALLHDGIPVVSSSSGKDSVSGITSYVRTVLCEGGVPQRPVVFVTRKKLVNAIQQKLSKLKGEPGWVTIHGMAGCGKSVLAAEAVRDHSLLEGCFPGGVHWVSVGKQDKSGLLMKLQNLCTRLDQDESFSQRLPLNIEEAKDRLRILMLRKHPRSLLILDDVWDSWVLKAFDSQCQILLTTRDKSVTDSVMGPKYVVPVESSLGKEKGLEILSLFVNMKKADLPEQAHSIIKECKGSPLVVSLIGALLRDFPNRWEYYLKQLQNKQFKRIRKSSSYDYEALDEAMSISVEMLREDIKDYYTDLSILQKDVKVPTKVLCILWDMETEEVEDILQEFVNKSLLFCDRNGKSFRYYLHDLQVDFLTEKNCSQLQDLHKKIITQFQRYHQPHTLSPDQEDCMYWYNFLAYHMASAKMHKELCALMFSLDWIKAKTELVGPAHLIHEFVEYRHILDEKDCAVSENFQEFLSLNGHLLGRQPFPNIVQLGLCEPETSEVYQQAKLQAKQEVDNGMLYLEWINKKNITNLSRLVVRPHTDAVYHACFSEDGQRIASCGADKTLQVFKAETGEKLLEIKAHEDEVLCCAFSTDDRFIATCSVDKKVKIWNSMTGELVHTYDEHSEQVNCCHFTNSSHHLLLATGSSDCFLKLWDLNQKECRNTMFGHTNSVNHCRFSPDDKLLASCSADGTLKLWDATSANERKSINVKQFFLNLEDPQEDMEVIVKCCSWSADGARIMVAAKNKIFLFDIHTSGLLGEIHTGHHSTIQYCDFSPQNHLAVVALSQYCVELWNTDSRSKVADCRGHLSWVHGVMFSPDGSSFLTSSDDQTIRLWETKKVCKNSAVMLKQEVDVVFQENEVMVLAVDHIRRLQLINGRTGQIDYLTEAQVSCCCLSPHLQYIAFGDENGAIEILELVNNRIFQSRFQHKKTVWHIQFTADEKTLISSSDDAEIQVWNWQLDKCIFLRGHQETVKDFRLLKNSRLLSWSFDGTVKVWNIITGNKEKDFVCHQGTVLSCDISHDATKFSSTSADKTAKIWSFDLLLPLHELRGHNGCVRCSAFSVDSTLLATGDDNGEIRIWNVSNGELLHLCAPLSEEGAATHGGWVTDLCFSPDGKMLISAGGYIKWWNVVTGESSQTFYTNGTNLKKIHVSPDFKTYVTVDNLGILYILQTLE
# [8] = target: Glucose-6-phosphate 1-dehydrogenase (Homo sapiens, UniProt P11413); assay: human G6PD enzyme inhibitors, dose response, selectivity assay for P. falciparum G6PD inhibitor project, biochemical, fluorescence (AID 504792); format: functional
# Sequence of Glucose-6-phosphate 1-dehydrogenase (P11413 whole entry): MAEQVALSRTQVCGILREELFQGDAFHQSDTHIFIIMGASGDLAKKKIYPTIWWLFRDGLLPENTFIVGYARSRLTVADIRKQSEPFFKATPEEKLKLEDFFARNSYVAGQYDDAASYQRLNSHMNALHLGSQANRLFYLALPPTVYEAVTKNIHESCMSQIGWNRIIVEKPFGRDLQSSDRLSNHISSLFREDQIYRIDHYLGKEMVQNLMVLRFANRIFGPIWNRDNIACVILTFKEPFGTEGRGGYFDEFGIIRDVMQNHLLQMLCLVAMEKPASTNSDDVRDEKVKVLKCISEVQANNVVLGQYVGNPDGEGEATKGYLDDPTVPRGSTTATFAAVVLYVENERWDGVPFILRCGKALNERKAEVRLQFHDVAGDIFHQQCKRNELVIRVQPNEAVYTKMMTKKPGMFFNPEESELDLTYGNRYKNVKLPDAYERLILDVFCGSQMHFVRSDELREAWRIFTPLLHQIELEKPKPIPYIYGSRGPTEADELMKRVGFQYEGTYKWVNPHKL
# [9] = control 3'UTR Renilla luciferase suppression, dose response, counter-screen for Shn3 inhibitor project, cell-based, Clone20-Shn3RL, cherry-picked (AID 624133); format: functional
# [10] = HepG2 cell cytotoxicity, dose response, cytotoxicity control for Shn3 inhibitor project, CellTiter-Glo, cherry-picked (AID 624134); format: functional, cell-based
# [11] = Shn3 3'UTR reporter inhibitors, dose response, cell-based, Clone20 osteoblasts, firefly luciferase, cherry-picked (AID 624132); format: functional;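 further: firefly luciferase luminescence from reporter carrying the Shn3 3'UTR in osteoblasts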
# [12] = target: T3, Calpain-2 catalytic subunit (Sus scrofa, UniProt P43367); assay: pig calpain II inhibitor potency, dose response, biochemical, fluorogenic peptide substrate (AID 1420); format: functional
# T3 sequence (P43367 whole entry): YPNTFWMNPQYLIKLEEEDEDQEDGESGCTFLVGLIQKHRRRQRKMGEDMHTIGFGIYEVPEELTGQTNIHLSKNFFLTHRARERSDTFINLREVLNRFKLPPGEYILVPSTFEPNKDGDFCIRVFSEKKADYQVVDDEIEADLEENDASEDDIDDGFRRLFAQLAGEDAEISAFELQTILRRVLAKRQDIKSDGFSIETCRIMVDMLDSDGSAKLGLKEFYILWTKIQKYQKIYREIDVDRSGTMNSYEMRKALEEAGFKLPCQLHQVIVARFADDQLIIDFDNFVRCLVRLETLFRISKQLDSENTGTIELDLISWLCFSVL
# Estrogen receptor beta = Estrogen receptor beta (Homo sapiens, UniProt Q92731);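 further: recombinant ER-beta bound to coactivator SRC1 peptide in presence of estradiol agonist; inhibitors block coactivator peptide binding and lower the FRET signal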
# Sequence of Estrogen receptor beta (Q92731 whole entry): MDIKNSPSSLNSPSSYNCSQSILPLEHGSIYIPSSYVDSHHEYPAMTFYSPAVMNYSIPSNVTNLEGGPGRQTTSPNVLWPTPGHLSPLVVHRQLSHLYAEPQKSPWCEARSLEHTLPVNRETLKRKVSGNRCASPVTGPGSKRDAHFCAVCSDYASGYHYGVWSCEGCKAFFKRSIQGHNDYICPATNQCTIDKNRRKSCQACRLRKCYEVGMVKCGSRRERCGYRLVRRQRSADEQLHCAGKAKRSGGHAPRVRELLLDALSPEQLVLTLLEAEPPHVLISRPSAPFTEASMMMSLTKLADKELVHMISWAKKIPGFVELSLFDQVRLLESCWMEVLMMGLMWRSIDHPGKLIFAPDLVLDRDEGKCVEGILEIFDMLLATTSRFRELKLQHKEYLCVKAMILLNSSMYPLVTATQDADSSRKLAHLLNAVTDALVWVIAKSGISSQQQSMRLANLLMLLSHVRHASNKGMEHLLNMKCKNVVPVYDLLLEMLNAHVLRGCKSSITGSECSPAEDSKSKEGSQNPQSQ
# [13] = target: T4, Replicative DNA helicase DnaB (Mycobacterium tuberculosis, UniProt P9WMR3); assay: DnaB intein splicing inhibitors, dose response, biochemical, cell-free fluorescence (AID 449749); format: functional
# T4 sequence (P9WMR3 whole entry): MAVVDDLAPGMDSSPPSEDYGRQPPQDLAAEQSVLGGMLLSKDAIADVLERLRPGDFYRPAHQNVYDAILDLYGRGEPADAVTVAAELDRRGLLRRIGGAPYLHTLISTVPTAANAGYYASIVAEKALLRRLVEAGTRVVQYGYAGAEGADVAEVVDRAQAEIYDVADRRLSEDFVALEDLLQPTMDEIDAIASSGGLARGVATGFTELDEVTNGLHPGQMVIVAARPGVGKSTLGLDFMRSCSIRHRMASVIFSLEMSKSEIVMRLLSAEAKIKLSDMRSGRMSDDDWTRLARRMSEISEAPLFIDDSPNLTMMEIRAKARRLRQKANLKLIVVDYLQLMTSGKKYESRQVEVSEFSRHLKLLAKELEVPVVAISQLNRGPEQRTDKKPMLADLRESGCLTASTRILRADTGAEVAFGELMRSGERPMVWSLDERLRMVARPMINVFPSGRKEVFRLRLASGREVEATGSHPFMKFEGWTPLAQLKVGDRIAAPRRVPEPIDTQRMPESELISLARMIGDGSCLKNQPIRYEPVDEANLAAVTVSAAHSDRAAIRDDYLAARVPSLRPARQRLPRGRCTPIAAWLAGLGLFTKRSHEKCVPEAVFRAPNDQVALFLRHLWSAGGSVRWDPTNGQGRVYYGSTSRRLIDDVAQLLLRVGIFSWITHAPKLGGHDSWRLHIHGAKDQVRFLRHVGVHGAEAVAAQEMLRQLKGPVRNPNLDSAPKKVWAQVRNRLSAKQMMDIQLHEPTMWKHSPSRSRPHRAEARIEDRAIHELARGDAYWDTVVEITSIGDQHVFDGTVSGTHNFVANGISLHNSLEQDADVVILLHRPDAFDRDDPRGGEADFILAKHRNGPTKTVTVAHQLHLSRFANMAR
# Protein RecA = target: T5, Protein RecA (Mycobacterium tuberculosis, UniProt P9WHJ3); assay: Fluorescence Cell-Free Homogeneous Dose Retest to Identify Inhibitors of RecA-Intein Splicing Activity. [Related pubchem assays (depositor defined):AID2097, AID2223, AID489010, AID492950]; format: functional
# T5 sequence (P9WHJ3 whole entry): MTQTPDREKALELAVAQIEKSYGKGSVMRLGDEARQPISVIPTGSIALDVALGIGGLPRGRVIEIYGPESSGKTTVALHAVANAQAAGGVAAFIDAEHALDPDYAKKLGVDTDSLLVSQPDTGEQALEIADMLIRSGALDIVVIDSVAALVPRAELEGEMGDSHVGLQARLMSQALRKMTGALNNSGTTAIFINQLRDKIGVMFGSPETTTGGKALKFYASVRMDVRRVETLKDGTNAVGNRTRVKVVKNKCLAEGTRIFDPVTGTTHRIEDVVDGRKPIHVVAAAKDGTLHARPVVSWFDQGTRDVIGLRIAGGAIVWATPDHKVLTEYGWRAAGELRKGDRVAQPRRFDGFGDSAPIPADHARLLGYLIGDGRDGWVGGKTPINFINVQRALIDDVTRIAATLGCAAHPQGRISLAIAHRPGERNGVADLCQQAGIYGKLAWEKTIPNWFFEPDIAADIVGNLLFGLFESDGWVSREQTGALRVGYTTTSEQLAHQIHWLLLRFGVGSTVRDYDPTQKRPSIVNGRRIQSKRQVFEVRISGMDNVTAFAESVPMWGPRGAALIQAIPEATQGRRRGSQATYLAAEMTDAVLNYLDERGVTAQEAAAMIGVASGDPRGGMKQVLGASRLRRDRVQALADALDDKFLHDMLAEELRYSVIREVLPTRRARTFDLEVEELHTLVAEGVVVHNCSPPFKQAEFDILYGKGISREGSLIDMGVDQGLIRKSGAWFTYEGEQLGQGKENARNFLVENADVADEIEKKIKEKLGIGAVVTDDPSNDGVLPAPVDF
# [14] = target: Heat shock protein HSP 90-alpha (Homo sapiens, UniProt P07900); format: functional, organism-based
# [15] = inhibitors of clade B AD8 Env fusion, dose response, cell-based, cherry-pick (AID 652062); format: functional;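 further: luciferase signal from cell-cell fusion driven by HIV-1 clade B AD8 Env; potency is for inhibitors of fusion seen as a drop in luminescence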
# [16] = inhibitors of HIV Env-driven cell fusion, dose response, cherry-pick (AID 652057); format: functional, cell-based
# [17] = off-target signal loss in HeLa-CEM21 co-culture – HeLa F-luc CTL cells, cherry-picked, counter-screen for HIV-1 Env fusion inhibitor project, dose response (AID 652040); format: functional, cell-based;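 further: potency for signal decrease marking cytotoxic or nonspecific inhibition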
# T1 sequence (P49327 whole entry, the tested form may be a part): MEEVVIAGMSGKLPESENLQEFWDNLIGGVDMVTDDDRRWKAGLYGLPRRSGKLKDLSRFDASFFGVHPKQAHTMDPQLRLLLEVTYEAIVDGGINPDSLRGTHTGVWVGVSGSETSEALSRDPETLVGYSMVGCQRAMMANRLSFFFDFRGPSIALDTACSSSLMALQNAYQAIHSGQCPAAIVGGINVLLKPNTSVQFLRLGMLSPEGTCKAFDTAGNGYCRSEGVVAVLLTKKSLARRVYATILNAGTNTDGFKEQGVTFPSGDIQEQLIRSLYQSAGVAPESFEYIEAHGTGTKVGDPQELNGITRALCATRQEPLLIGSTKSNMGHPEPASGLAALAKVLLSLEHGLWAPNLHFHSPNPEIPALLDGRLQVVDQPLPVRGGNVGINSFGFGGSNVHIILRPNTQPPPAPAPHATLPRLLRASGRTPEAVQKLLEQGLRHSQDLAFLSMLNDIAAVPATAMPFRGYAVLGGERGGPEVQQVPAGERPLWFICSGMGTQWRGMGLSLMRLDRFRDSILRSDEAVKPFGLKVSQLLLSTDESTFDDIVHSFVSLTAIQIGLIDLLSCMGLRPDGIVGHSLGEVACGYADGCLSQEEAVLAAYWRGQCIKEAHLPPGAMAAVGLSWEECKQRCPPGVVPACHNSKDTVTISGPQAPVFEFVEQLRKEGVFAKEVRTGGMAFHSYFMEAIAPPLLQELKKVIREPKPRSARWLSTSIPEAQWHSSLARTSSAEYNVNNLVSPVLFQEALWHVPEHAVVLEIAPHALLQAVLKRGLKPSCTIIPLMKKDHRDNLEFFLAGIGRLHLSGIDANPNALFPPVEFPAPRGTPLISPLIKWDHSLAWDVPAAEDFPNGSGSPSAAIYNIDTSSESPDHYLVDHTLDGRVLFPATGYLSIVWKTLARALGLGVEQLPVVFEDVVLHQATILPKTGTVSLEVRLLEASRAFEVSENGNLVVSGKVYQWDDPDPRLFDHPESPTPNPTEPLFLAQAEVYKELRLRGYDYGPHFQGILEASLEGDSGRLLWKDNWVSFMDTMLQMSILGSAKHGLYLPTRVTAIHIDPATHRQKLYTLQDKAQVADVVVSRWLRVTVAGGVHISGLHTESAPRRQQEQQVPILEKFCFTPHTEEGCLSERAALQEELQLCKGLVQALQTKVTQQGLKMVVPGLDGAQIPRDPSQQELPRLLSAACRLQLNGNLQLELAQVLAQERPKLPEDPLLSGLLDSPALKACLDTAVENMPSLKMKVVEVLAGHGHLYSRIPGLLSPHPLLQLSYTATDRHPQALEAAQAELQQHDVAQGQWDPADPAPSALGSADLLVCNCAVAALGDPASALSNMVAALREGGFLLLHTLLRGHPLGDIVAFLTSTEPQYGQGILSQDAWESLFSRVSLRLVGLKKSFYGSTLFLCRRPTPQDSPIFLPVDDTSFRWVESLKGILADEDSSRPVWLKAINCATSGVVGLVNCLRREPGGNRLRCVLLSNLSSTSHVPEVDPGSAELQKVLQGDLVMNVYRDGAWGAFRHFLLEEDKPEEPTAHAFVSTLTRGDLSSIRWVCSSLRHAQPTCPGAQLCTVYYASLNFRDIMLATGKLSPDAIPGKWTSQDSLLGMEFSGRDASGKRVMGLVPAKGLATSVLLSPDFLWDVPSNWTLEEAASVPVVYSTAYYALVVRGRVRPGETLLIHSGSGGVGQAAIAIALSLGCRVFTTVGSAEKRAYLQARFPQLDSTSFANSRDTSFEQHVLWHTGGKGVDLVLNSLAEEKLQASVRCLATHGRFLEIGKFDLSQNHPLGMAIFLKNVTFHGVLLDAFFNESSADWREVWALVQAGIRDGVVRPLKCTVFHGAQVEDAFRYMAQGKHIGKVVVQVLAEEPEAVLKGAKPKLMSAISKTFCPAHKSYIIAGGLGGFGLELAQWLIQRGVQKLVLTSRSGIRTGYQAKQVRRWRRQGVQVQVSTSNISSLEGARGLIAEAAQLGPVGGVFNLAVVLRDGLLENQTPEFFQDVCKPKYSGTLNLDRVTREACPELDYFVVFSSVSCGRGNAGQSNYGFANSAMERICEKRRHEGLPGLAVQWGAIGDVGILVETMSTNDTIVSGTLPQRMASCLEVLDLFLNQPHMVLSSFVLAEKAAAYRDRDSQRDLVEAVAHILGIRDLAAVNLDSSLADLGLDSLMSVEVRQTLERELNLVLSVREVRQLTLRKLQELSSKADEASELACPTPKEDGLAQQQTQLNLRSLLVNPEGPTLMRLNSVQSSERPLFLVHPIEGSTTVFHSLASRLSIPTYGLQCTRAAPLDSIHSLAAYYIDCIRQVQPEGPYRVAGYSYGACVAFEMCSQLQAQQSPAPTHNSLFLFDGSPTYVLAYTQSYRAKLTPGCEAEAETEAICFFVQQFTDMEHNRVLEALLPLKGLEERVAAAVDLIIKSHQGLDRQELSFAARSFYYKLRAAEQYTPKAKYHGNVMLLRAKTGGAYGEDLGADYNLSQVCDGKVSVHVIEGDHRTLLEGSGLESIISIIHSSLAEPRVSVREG
compound,measurement,setting,value
CSc1ccc(CN2C(=O)C(F)(F)Oc3c(C(C)=O)cccc32)cc1,IC50,Fatty acid synthase [1],9.77 µM (active)
same,IC50,Fatty acid synthase [2],9.19 µM (active)
O=C(/C=C/c1ccco1)NC(=S)Nc1cccc(-c2nc3ccccc3o2)c1,EC50,BJ [3],3.83 µM (active)
same,EC50,BJ [4],9.72 µM (active)
same,EC50,[5],12.1 µM (inconclusive)
same,EC50,BJ [6],88.3 µM (active)
CCOc1ccccc1N1CCN(C(=O)C2c3ccccc3Oc3ccccc32)CC1,IC50,[7],29.3 µM (active)
CCOc1cc(NCc2ccccc2)c2ncn(C(C)C)c2c1,IC50,[7],34.7 µM (active)
same,IC50,[8],> 80 µM (inactive)
COc1ccc(/C=C/C(=O)c2ccc(C(=O)/C=C/c3ccc(OC)c(OC)c3)cc2)cc1OC,AC50,[9],25.9 µM (active)
same,AC50,[10],69.1 µM (active)
same,EC50,BJ [3],10.7 µM (inconclusive)
same,EC50,BJ [4],7.92 µM (active)
same,EC50,[5],10.4 µM (active)
same,EC50,BJ [6],27 µM (active)
same,AC50,[11],5.18 µM (active)
O=C(Nc1ccc(Br)cc1)c1cccc(-n2cnnn2)c1,IC50,Fatty acid synthase [1],24.8 µM (inactive)
same,IC50,Fatty acid synthase [2],32.9 µM (inactive)
Cc1ccc(C)c(NC(=O)Cc2nc(CCl)cs2)c1,IC50,[12],1.04 µM (not active)
Cc1cc(-c2ccc(N3C(=O)CCC3=O)c(C)c2)ccc1N1C(=O)CCC1=O,IC50,Estrogen receptor beta,> 50 µM (not active)
Cc1c([C@H]2[C@@H](CC#N)C2(C)C)c2ccccc2n1C,IC50,Estrogen receptor beta,> 50 µM (not active)
O=C(CN=C(S)N(Cc1ccccc1)Cc1ccccc1F)NCc1ccccc1,IC50,[12],> 50 µM (not active)
CCc1ccc(C(=O)C(C)OC(=O)Cc2nnc(O)c3ccccc23)cc1 (configuration not stated),EC50,BJ [3],> 150 µM (inconclusive)
same,EC50,BJ [4],18.2 µM (active)
same,EC50,[5],17.9 µM (active)
same,EC50,BJ [6],49.9 µM (inconclusive)
COc1cccc(-n2nc(-c3ccnn3-c3ccc(F)cc3)c(=O)n(C)c2=O)c1,IC50,Estrogen receptor beta,> 50 µM (not active)
O=[N+]([O-])c1ccc(Oc2cccc(F)c2)c2ccncc12,AC50,[13],> 380 µM (inactive)
same,EC50,Protein RecA,0.956 µM (active)
same,IC50,[12],3.5 µM (not active)
COc1cc(/C=N/n2cnnc2)ccc1OS(=O)(=O)c1ccccc1[N+](=O)[O-],IC50,[12],15.5 µM (not active)
C[C@@]12C(=O)N(c3cccc(Br)c3)C(=O)N1[C@H](c1ccc(Cl)cc1)[C@@H]1C(=O)N(C3CCCCC3)C(=O)[C@@H]12,IC50,Fatty acid synthase [1],5.22 µM (active)
same,IC50,Fatty acid synthase [2],7.4 µM (active)
COc1ccc(C(=O)N2CCN(CCc3ccccc3)CC2)cc1[N+](=O)[O-],IC50,Fatty acid synthase [1],0.525 µM (active)
same,IC50,Fatty acid synthase [2],0.786 µM (active)
Oc1ccc(O)c2c1C1(Cl)C(Cl)=C(Cl)C2(Cl)C1(Cl)Cl,AC50,[14],8.21 µM (active)
same,IC50,Fatty acid synthase [1],14.1 µM (active)
same,IC50,Fatty acid synthase [2],15.7 µM (active)
O=C(COC(=O)CSc1ccc2ccccc2c1)Nc1ccccc1OC(F)F,IC50,[12],1.8 µM (not active)
CCN(CC)S(=O)(=O)c1cccc(S(=O)(=O)c2cccc(S(=O)(=O)N(CC)CC)c2)c1,AC50,[15],18.3 µM (active)
same,AC50,[16],20.8 µM (active)
same,AC50,[17],43.7 µM (active)
